Data set [1] addresses T1, membrane TPP II (tripeptidyl peptidase II) (Rattus norvegicus, UniProt Q64560).
T1 construct: evaluated by measuring the activity of membrane TPP II; from tissue; host or cells: rat cerebral cortex membranes
The data set can be described thus: Inhibition of AAF-Amc hydrolysis by cerebral membranes (inhibition of TPP II). The following applies: for Ki: rat cerebral cortex membranes; for activity (stated in words): stereoisomers not separated (2(R/S) mixture). Format: biochemical. Here is the method:
The potency of the compounds of the invention was evaluated by measuring the activity of membrane TPP II.
Membranes of rat cerebral cortex were obtained by centrifugation (200,000×g min) of a homogenate in 10 volumes of a 50 mM potassium phosphate buffer, pH 7.4.
The centrifugation pellet was carefully washed and taken up in a buffer containing 10% glycerol and 0.1% Brij 35 to obtain a concentration of 25 mg protein/ml.
After 25 minutes of preincubation, incubation is carried out in 0.1 ml of a buffer containing 0.1% Brij 35, […], 25 μg of membrane protein and 50 μm of substrate Ala-Ala-Phe-Amc (AAF-Amc). Liberation of 7-amino4-methylcoumarin (Amc) is evaluated by fluorimetry.

Setting [2] is: Table 2, comparative compounds known in the art, substrate AAF-Amc, read-out: Ki (nM), Inhibition of AAF-Amc Hydrolysis by Cerebral Membranes, comparative compound.
Where [3] appears, read: Table 1, substrate Ala-Ala-Phe-Amc, Ki calculated from 50% inhibition concentration and Km 23 μM, read-out: Ki (nM), Inhibition of AAF-Amc Hydrolysis by Cerebral Membranes.

The text below walks through data of US6335360B1, “Tripeptidyl peptidase inhibitors” (Institut National de la Sante et de la Recherche Medicale …, priority 1997, dated 2002).

Where a name gives a salt, the structure may show the parent alone. Read-outs that look alike come from different tables or passages of the source.

T1 sequence (Q64560 whole entry): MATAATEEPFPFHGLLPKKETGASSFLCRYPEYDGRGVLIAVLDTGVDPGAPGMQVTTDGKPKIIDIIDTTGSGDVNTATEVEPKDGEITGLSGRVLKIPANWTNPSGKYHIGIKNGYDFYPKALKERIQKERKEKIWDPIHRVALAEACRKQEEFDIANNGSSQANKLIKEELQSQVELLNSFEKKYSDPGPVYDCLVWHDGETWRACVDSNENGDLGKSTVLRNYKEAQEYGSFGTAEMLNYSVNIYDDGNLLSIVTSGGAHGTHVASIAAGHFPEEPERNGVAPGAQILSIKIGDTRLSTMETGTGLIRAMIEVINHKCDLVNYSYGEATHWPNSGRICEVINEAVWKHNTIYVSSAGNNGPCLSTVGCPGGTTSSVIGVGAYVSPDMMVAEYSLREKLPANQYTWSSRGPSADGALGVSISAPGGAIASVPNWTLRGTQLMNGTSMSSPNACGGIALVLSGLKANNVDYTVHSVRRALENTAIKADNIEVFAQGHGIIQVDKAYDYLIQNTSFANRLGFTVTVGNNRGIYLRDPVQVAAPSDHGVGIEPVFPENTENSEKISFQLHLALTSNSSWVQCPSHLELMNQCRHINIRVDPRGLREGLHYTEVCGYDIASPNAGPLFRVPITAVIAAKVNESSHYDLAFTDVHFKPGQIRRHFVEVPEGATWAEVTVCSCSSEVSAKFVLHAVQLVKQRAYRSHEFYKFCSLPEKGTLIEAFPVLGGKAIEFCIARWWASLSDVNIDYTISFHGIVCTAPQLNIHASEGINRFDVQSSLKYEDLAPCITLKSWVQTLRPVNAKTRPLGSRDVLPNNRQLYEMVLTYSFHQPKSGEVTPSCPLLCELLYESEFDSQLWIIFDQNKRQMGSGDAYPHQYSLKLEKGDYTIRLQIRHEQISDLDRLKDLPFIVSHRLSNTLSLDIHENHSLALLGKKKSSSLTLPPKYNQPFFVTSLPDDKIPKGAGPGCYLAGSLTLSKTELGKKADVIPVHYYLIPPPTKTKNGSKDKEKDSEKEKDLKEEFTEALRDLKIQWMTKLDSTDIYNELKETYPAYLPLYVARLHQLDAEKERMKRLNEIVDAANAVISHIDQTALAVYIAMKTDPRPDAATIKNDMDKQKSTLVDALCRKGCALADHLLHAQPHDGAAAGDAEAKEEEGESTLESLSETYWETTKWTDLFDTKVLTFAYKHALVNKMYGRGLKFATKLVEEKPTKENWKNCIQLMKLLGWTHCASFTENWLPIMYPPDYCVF

As a reminder, the melting point is the temperature of the solid-liquid transition. On to `CC[C@H](N)C(=O)C1c2c(ccc3ccccc23)N[C@@H]1C(=O)NCC(F)(F)F.O=C(O)C(F)(F)F` (stereo partly shown), for which the melting point lay in the range of 64 to 78 °C.
In the case of `CCCCNC(=O)[C@H]1Nc2ccc3ccccc3c2C1C(=O)[C@@H](N)CC.O=C(O)C(F)(F)F` (stereo partly shown), the melting point lay within 76 to 88 °C.
On the same count and under the same terms, in the case of `CC[C@H](N)C(=O)N1c2cccc(OC)c2C[C@H]1C(=O)NCC(F)(F)F.O=C(O)C(F)(F)F` it was 125 to 149 °C.
As a reminder, the Ki is a measure of affinity in units of concentration, obtained from inhibition or displacement. As for `CCCCNC(=O)C1Cc2cc(O)ccc2N1C(=O)[C@@H](N)CC` (mixture of isomers) [C.C.4, 1-(2(S)-aminobutyryl)-5-hydroxyindoline-2(R/S)-carboxylic acid n-butylamide, reference compound], the inhibitory constant (Ki) in data set [1] (setting [2]) is 6.6 nM.
`CCCCNC(=O)C1Cc2cc(OC)ccc2N1C(=O)[C@@H](N)CC` (mixture of isomers) [C.C.5, 1-(2(S)-aminobutyryl)-5-methoxyindoline-2(R/S)-carboxylic acid n-butylamide, reference compound]: in data set [1] (setting [2]), the Ki was 8 nM.
For the molecule `CC[C@H](N)C(=O)N1c2ccc(O)cc2CC1C(=O)NCC(F)(F)F` (mixture of isomers) [Example 6, 1-(2(S)-aminobutyryl)-5-hydroxyindoline-2(R/S)-carboxylic acid (2,2,2,-trifluoroethyl)amide trifluoroacetate], the Ki is 2.8 nM in data set [1] (setting [3]) and 2.8 nM in data set [1] (Table 2, compounds of the invention, substrate AAF-Amc, read-out: Ki (nM), Inhibition of AAF-Amc Hydrolysis by Cerebral Membranes, compound of the invention).
`CC[C@H](N)C(=O)N1c2cccc(Cl)c2CC1C(=O)NCC(F)(F)F.O=C(O)C(F)(F)F` (mixture of isomers) [Example 7, 1-(2(S)-aminobutyryl)-4-chloroindoline-2(R/S)-carboxylic acid (2,2,2-trifluoroethyl)amide trifluoroacetate] [listing 1 of 2 here]: the Ki in data set [1] (setting [3]) was 0.56 nM. The “activity (stated in words)” value in data set [1] is listed as “useful activity”.
Take `CC[C@H](N)C(=O)N1c2cccc(F)c2CC1C(=O)NCC(F)(F)F.O=C(O)C(F)(F)F` (mixture of isomers) [Example 8, 1-(2(S)-aminobutyryl)-4-fluoroindoline-2(R/S)-carboxylic acid (2,2,2-trifluoroethyl)amide trifluoroacetate] [listing 1 of 2 here]: the Ki in data set [1] (setting [3]) is 0.36 nM. The “activity (stated in words)” value in data set [1] is listed as “useful activity”.
As for `CC[C@H](N)C(=O)N1c2ccc(OC)cc2CC1C(=O)NCC(F)(F)F` (mixture of isomers) [Example 9, 1-(2(S)-aminobutyryl)-5-methoxyindoline-2(R/S)-carboxylic acid (2,2,2-trifluoroethyl)amide trifluoroacetate], the Ki in data set [1] (setting [3]) is 0.7 nM.
Turning to `CC[C@H](N)C(=O)N1c2ccc(OC(F)(F)F)cc2CC1C(=O)NCC(F)(F)F` (mixture of isomers) [Example 10, 1-(2(S)-aminobutyryl)-5-trifluoromethoxyindoline-2(R/S)-carboxylic acid (2,2,2-trifluoroethyl)amide trifluoroacetate], the Ki in data set [1] (setting [3]) was 1.1 nM.
In the case of `CCCCNC(=O)C1Cc2c(ccc(Cl)c2Cl)N1C(=O)[C@@H](N)CC.O=C(O)C(F)(F)F` (mixture of isomers), the melting point is 115 to 124 °C.
`CC[C@H](N)C(=O)N1c2ccc(Cl)c(Cl)c2CC1C(=O)NCC(F)(F)F.O=C(O)C(F)(F)F` (mixture of isomers): the melting point lay in the range of 68 to 78 °C.
In turn, `CC[C@H](N)C(=O)N1c2cccc(C)c2CC1C(=O)NCC(F)(F)F.O=C(O)C(F)(F)F` (mixture of isomers) came in with a melting point of 109 to 122 °C.
The same measure, in the same setting: in the case of `CC[C@H](N)C(=O)N1c2ccc(OC)c(OC)c2CC1C(=O)NCC(F)(F)F.O=C(O)C(F)(F)F` (mixture of isomers) it was 79 to 87 °C; in that of `CC[C@H](N)C(=O)N1c2ccc3c(c2CC1C(=O)NCC(F)(F)F)OCO3.O=C(O)C(F)(F)F` (mixture of isomers), 89 to 98 °C; in that of `CC[C@H](N)C(=O)N1c2cccc(Cl)c2CC1C(=O)NCC(F)(F)F.O=C(O)C(F)(F)F` (mixture of isomers) [Example 7, 1-(2(S)-aminobutyryl)-4-chloroindoline-2(R/S)-carboxylic acid (2,2,2-trifluoroethyl)amide trifluoroacetate] [listing 2 of 2 here], 104 to 106 °C.
Same read-out and setting: the result for `CC[C@H](N)C(=O)N1c2cccc(F)c2CC1C(=O)NCC(F)(F)F.O=C(O)C(F)(F)F` (mixture of isomers) [Example 8, 1-(2(S)-aminobutyryl)-4-fluoroindoline-2(R/S)-carboxylic acid (2,2,2-trifluoroethyl)amide trifluoroacetate] [listing 2 of 2 here] reads 57.5 to 58.5 °C; that for `CC[C@H](N)C(=O)N1c2ccc(OC)cc2CC1C(=O)NCC(F)(F)F.O=C(O)C(F)(F)F` (mixture of isomers) [Example 9, 1-(2(S)-aminobutyryl)-5-methoxyindoline-2(R/S)-carboxylic acid (2,2,2-trifluoroethyl)amide trifluoroacetate], 63.5 to 66 °C.
`CCCCNC(=O)[C@@H]1Cc2cc(Cl)ccc2N1C(=O)[C@@H](N)CC` [C.C.1, 1-(2(S)-aminobutyryl)-5-chloroindoline-2(S)-carboxylic acid n-butylamide, reference compound]: the Ki in data set [1] (setting [2]) was 2.5 nM.
Regarding `CC[C@H](N)C(=O)N1c2ccc(Cl)cc2C[C@H]1C(=O)NCC(F)(F)F.O=C(O)C(F)(F)F` [Example 1, 1-(2(S)-aminobutyryl)-5-chloroindoline-2(S)-carboxylic acid (2,2,2-trifluoroethyl)amide trifluoroacetate], the melting point lay within 34 to 35 °C. Moreover, the Ki in data set [1] (setting [3]) was 0.4 nM.
The molecule `CC[C@H](N)C(=O)N1c2ccc(Cl)cc2C[C@H]1C(=O)NCCCl.O=C(O)C(F)(F)F` [Example 2, 1-(2(S)-Aminobutyryl)-5-chloroindoline-2(S)-carboxylic acid 2-chloroethylamide trifluoroacetate] had a melting point of 80 to 88 °C. Moreover, in data set [1] (setting [3]), the Ki is 1.7 nM.
Consider `CC[C@H](N)C(=O)N1c2ccccc2C[C@H]1C(=O)NCCSC.O=C(O)C(F)(F)F` [Example 3, 1-(2(S)-aminobutyryl)-indoline-2(S) carboxylic acid (2-methylthioethyl)amide trifluoroacetate], for which the melting point lay in the range of 59.5 to 60.5 °C.
Same read-out and setting: in the case of `CC[C@H](N)C(=O)N1c2ccccc2C[C@H]1C(=O)NCC1CC1.O=C(O)C(F)(F)F` [Example 4, 1-(2(S)-aminobutyryl)-indoline-2(S)-carboxylic acid N-(cyclopropylmethyl)amide trifluoroacetate] it was 57 to 74 °C.
